Data taken from US9187458B2, “Cyanoquinoline derivatives” (Tianjin Hemay Bio-Tech Co., LTD., priority 2010, dated 2015).

Columns and labels:
[1] = system: BT-474 cells; assay: BT-474 Cell Growth Inhibition Test (SRB Assay); assay type: cell-based, human; settings: Homo sapiens, 70 h incubation; for inhibition at 1 µM: BT-474, 70 h, compound 1 μM, read-out: Growth Inhibition Ratio (%)
Description: BT-474 Cell Growth Inhibition Test (SRB Assay)
1. Cell strains: BT-474 (human breast tumor cell strains);
2. SRB: available from Sigmaaldrich, goods number: S9012, lot number: 047K3751. SRB was reserved at the room temperature. 0.4% (w/v) of working solution was formulated with 1% of glacial acetic acid. The solution was reserved at the temperature of 4° C.; anti-tumor compounds; DMSO.
Culture medium (90% EMEM+10% FBS+0.1 mM NEAA, reserved at 4° C.);
(§1) 1. A plate (10 cm) of cells in logarithmic growth phase normally cultured was collected. The culture solution was sucked out. The plate was washed with 5 mL of PBS 1-2 times;
2. PBS was sucked out, and […] of 0.25% pancreatin was added to infiltrate the cells for 30 s;
3. The pancreatin was sucked out. The culture plate was pleaced in an incubator. Digestion was carried out for about 5 min at 37° C.;
4. 3 mL of complete culture solution was added to the culture plate to stop the digestion. The cells were carefully scoured with micropipette (1 ml) to give a uniform single cell suspension;
5. Cell suspension was counted. The suspension was diluted to 1×10^5/ml. The resulting suspension was developed uniformly on a plate. The plate was incubated under 5% CO2 at 37° C. overnight. In day 2, 80 μL of complete culture medium was added in each well and then 20 μL of culture solution comprising a compound was added. The mixture was incubated for 70 h under 5% CO2 at 37° C.
(§2) 6. The culture solution was sucked out. 100 uL of TCA fixed cells which were diluted to 10% were added to each well. The plate was kept in a refrigerator for 1 h at 4° C.
(§3) 7. TCA stationary liquid was sucked out. Each well was washed with 150 μL of ddH2O five times;
(§4) 8. After the stationary liquid was cleansed, the plate was dried in the air at the room temperature;
(§5) 9. 60 μL of SRB staining solution was added in each well. The well was stained for 15 min at the room temperature;
(§6) 10. The SRB staining solution was sucked out. Each well was washed with 150 μL of 1% glacial acetic acid five times;
(§7) 11. After the SRB staining solution was cleansed, the plate was dried in the air at the room temperature;
(§8) 12. 100 μL of 10 mM Tris was added in each well. The plate was vibrated to dissolve out SRB;
(§9) 13. OD values were determined at 570 nM.
(§10) 1. Calculation of Relative Inhibition Ratio The inhibition ratio of a compound on cell growth=(PC−n)/(PC−NC)×100%
(§11) IC50: Concentration of a compound where inhibition ratio was 50%. IC50 values were fitted with Origin7.5.

[2] = system: A431 cells; assay: A431 Cell Growth Inhibition Test (MTT Assay); assay type: cell-based, human; settings: Homo sapiens; for inhibition at 1 µM: A-431, 68 h, compound 1 μM, 68 h incubation, read-out: Growth Inhibition Ratio (%); for IC50: A-431, 68 h incubation
Description: A431 Cell Growth Inhibition Test (MTT Assay)
1. Cell strains: A431 (human epithelial […] cell strains);
Culture medium: 45% DMEM, 45% F12+10% FBS;
(§12) 1. A plate (10 cm) of cells in logarithmic growth phase normally cultured was collected;
(§13) 2. The culture solution was sucked out. The plate was washed with 5 ml of PBS 1-2 times;
3. PBS was sucked out, and 2 ml of 0.25% pancreatin was added to infiltrate the cells for 1 min;
4. The pancreatin was sucked out, and the culture plate was placed in an incubator. Digestion was carried out for about 15 min at 37° C.;
(§14) 5. 4 ml of complete culture solution was added in the culture plate to stop the digestion. The cells were carefully scoured with micropipette (1 ml) to give a uniform cell suspension. The suspension was implanted into a 96-well cell culture plate by 2500 cells/100 μl per well. The culture plate was incubated overnight under 5% CO2 at 37° C. In day 2, 100 μl of culture solution comprising the compound was added in each well, and further incubated for 68 h under 5% CO2 at 37° C.
(§15) 6. The culture solution was sucked out;
7. 100 μl of serum-free culture solution containing 0.5 mg/ml MTT was added in each well, and incubated for 4 h;
(§16) 8. The culture solution was carefully sucked out;
9. 100 μl of DMSO was added into each well and vibrated to dissolve;
(§17) 10. OD values were determined at 490 nM.
as §10
IC50: concentration of a compound where inhibition ratio was 50%. IC50 values were fitted with Origin7.5.

[3] = system: NCI-N87 cells; assay: NCI-N87 Cell Growth Inhibition Test (MTT Assay); assay type: cell-based; settings: Homo sapiens, 72 h incubation
Description: NCI-N87 Cell Growth Inhibition Test (MTT Assay)
1. Cell strains: NCI-N87 (human gastric carcinoma cell strains);
as §12
2. The culture solution was sucked out. The plate was washed wtih 5 ml of PBS 1-2 times;
(§18) 3. PBS was sucked out. 1.5 ml of 0.25% pancreatin was added to infiltrate the cells for 1 min;
4. The pancreatin was sucked out. The culture plate was placed in an incubator. Digestion was carried out for about 12 min at 37° C.;
(§19) 5. 4.5 ml of complete culture solution was added to the culture plate to stop the digestion. The cells were carefully scoured with micropipette (1 ml) to give a uniform cell suspension. The suspension was implanted into a 96-well cell culture disc by 17000 cells/100 μl per well. The culture plate was incubated overnight under 5% CO2 at 37° C. In day 2, 100 μl of culture solution comprising a compound was added in each well, and further incubated for 72 h under 5% CO2 at 37° C.
as §15
(§20) 7. 100 μl of serum-free culture solution containing 0.5 mg/ml MTT was added in each well, and incubated for 3 h;
as §16
(§21) 9. 100 μl of DMSO was added in each welland vibrated to dissolve;
as §17
1. Calculation of Rrelative Inhibition Ratio The inhibition ratio of a compound on cell growth=(PC−n)/(PC−NC)×100%
as §11

[4] = system: Sk-Br-3 cells; assay: Sk-Br-3 Cell Growth Inhibition Test (SRB Assay); assay type: cell-based; settings: Homo sapiens, 91 h incubation
Description: Sk-Br-3 Cell Growth Inhibition Test (SRB Assay)
1. Cell strains: Sk-Br-3 (human breast cancer cell strains);
2. SRB: available from Sigmaaldrich, goods number: S9012, lot number: 047K3751. SRB was reserved at the room temperature. 0.4% (w/v) of working solution was formulated with 1% of glacial acetic acid. The solution was reserved at 4° C.; anti-tumor compounds; DMSO
Culture medium: 90% DMEM+10% FBS;
as §1
2. PBS was sucked out. […] of 0.25% pancreatin was added to infiltrate the cells for 30 s;
3. The pancreatin was sucked out. The culture plate was placed in an incubator. Digestion was carried out for about 1.5-2 min at 37° C.;
4. 4 mL of complete culture solution was added to the culture plate to stop the digestion. The cells were carefully scoured with micropipette (1 ml) to give a uniform single cell suspension;
5. Cell suspension was counted. The suspension was diluted to 1×10^5/ml. The resulting suspension was developed uniformly on a plate by 10000 cells/100 μl per well. The culture plate was incubated overnight under 5% CO2 at 37° C. In day 2, 100 μl of culture solution comprising a compound was added in each well, and further incubated for 91 h under 5% CO2 at 37° C.
as §2, §3, §4, §5, §6, §7, §8, §9
To: OD values of the starting content of cells when the cells were developed on a plate;
PC: OD values of cells after normal growth in control wells without a compound;
Ti: OD values of cells after growth in test wells with a compound;
NC: Background OD values of blank well without a compound and cells
Therefore: Ratio of cells in test wells to normal wells (% of control cell growth)=(Ti−To)/(PC−To)×100%
Ratio GI50 was concentration of a compound at the point of 50%.
Therefore: Ratio of killed cells to inoculated cells (% of killed cells)=(Ti−To)/(To−NC)×100%
LC50 was concentration point of a compound when half of the starting inoculated concentration was reached.
Concentration of a compound at this point is defined as TGI (total growth inhibition).

[5] = system: Fadu cells; assay: Fadu Cell Growth Inhibition Test (MTT Assay); assay type: cell-based; settings: Homo sapiens, 72 h incubation
Description: Fadu Cell Growth Inhibition Test (MTT Assay)
Cell strains: Fudu (human head and neck cancer cell strains);
Culture medium: 90% EMEM+10% FBS;
as §12, §13, §18
4. The pancreatin was sucked out. The culture plate was placed in an incubator. Digestion was carried out for about 5 min at 37° C.;
as §19, with “plate” for “disc”, “6000” for “17000”
as §15, §20, §16, §21, §17, §10, §11

[6] = system: A549 cells; assay: A549 Cell Growth Inhibition Test (MTT Assay); assay type: cell-based; settings: Homo sapiens, 72 h incubation
Description: A549 Cell Growth Inhibition Test (MTT Assay)
1. Cell strains: […] (human lung caner cell strains);
Culture medium: 90% F12K+10% FBS;
as §12
2. The culture solution was sucked out. Tthe plate was washed with 5 ml of PBS 1-2 times;
(§22) 3. PBS was sucked out. 2 ml of 0.25% pancreatin was added to infiltrate the cells for 1 min;
(§23) 4. The pancreatin was sucked out. The culture plate was placed in an incubator. Digestion was carried out for about 2 min at 37° C.;
as §14, with “was added to the culture” for “was added in the culture”, “solution comprising a compound was” for “solution comprising the compound was”, “incubated for 72 h under” for “incubated for 68 h under”
as §15, §20, §16
(§24) 9. 100 μl of DMSO was added in each well and vibrated to dissolve;
as §17, §10, §11

[7] = system: NCI-H460 cells; assay: NCI-H460 Cell Growth Inhibition Test (MTT Assay); assay type: cell-based; settings: Homo sapiens, 72 h incubation
Description: NCI-H460 Cell Growth Inhibition Test (MTT Assay)
1. Cell strains: NCI-H460 (human large cell lung cancer cell strains);
as §12, §13, §22, §23
as §14, with “was added to the culture” for “was added in the culture”, “solution comprising a compound was” for “solution comprising the compound was”, “incubated for 72 h under” for “incubated for 68 h under”
as §15, §20, §16, §24, §17, §10, §11

Compound `C#Cc1cccc(Nc2c(C#N)cnc3cc(OC4CCOC4)c(NC(=O)/C=C/CN(C)C)cc23)c1` (mixture of isomers) [Example 177, (E/Z)-N-(3-CYANO-4-(3-ETHYNYLPHENYLAMINO)-7-(TETRAHYDROFURAN-3-YL-OXY)QUINOLIN-6-YL)-4-(DIMETHYLAMINO)-BUT-2-ENAMIDE] has an inhibition at 1 µM [1] of 87% and an inhibition at 1 µM [2] of 81%.
Compound `CN(C)C/C=C/C(=O)Nc1cc2c(Nc3ccc(OCc4cccc(F)c4)c(Cl)c3)c(C#N)cnc2cc1OC1CCOC1` (mixture of isomers) [Example 180, (E/Z)-N-(4-(4-(3-FLUOROBENZYLOXY)-3-CHLOROPHENYLAMINO)-3-CYANO-7-(TETRAHYDROFURAN-3-YL-OXY)QUINOLIN-6-YL)-4-(DIMETHYLAMINO)-BUT-2-ENAMIDE] has an inhibition at 1 µM [1] of 78% and an inhibition at 1 µM [2] of 73%.
With `N#Cc1cnc2cc(O[C@H]3CCOC3)c(NC(=O)/C=C/CNCCCCCCO)cc2c1Nc1ccc(OCc2ccccn2)c(Cl)c1` [Example 154, (S,E)-N-(4-(3-CHLORO-4-(PYRIDIN-2-YL-METHOXY)PHENYLAMINO)-3-CYANO-7-(TETRAHYDROFURAN-3-YL-OXY)QUINOLIN-6-YL)-4-(6-HYDROXYHEXYLAMINO)-BUT-2-ENAMIDE] the IC50 [3] was 41 nM, the GI50 [4] was 38 nM and the IC50 [5] was 324 nM. It also gave an IC50 [1] of 12 nM and an IC50 [2] of 162 nM.
Work on `Cc1ccccc1COc1ccc(Nc2c(C#N)cnc3cc(O[C@H]4CCOC4)c(NC(=O)/C=C/CN(C)C)cc23)cc1Cl` [Example 166, (S,E)-N-(4-(4-(2-METHYLBENZYLOXY)-3-CHLOROPHENYLAMINO)-3-CYANO-7-(TETRAHYDROFURAN-3-YL-OXY)QUINOLIN-6-YL)-4-(DIMETHYLAMINO)-BUT-2-ENAMIDE] yielded an inhibition at 1 µM [1] of 69% and an inhibition at 1 µM [2] of 69%.
Compound `Cc1ccc(COc2ccc(Nc3c(C#N)cnc4cc(O[C@H]5CCOC5)c(NC(=O)/C=C/CN(C)C)cc34)cc2Cl)cc1` [Example 167, (S,E)-N-(4-(4-(4-METHYLBENZYLOXY)-3-CHLOROPHENYLAMINO)-3-CYANO-7-(TETRAHYDROFURAN-3-YL-OXY)QUINOLIN-6-YL)-4-(DIMETHYLAMINO)-BUT-2-ENAMIDE] has an inhibition at 1 µM [1] of 75% and an inhibition at 1 µM [2] of 75%.
`CN(C)C/C=C/C(=O)Nc1cc2c(Nc3ccc(F)c(Cl)c3)c(C#N)cnc2cc1Oc1cccnc1` [Example 174, (E)-N-(4-(3-CHLORO-4-FLUOROPHENYLAMINO)-3-CYANO-7-(PYRIDIN-3-YL-OXY)QUINOLIN-6-YL)4-(DIMETHYLAMINO)-BUT-2-ENAMIDE] showed an IC50 [2] of 950 nM, an IC50 [6] of 3700 nM and an IC50 [7] of 3000 nM.
With `C#Cc1cccc(Nc2c(C#N)cnc3cc(O[C@H]4CCOC4)c(NC(=O)/C=C/CN(C)CCO)cc23)c1` [Example 190, (S,E)-N-(3-CYANO-4-(3-ETHYNYLPHENYLAMINO)-7-(TETRAHYDROFURAN-3-YL-OXY)QUINOLIN-6-YL)-4-(N-METHYLETHANOLAMINO)-BUT-2-ENAMIDE] the IC50 [1] was 267 nM and the inhibition at 1 µM [2] was 79%.
